Source: PubChem BioAssay (NCI)
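Abbreviation: GI50, concentration required for 50% inhibition of growth. TGI denotes the concentration required for complete inhibition of growth.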

Assays:
Test in all cases: NCI tumour cell line growth inhibition, 384-well format
SN12C renal = system: SN12C renal
SR leukemia = system: SR leukemia
HS 578T breast = system: HS 578T breast
HCC-2998 colon = system: HCC-2998 colon
IGROV1 ovarian = system: IGROV1 ovarian
HOP-62 NSCLC = system: HOP-62 NSCLC
OVCAR-5 ovarian = system: OVCAR-5 ovarian
M14 melanoma = system: M14 melanoma
COLO 205 colon = system: COLO 205 colon
ACHN renal = system: ACHN renal
BT-549 breast = system: BT-549 breast
SK-OV-3 ovarian = system: SK-OV-3 ovarian
SF-539 CNS = system: SF-539 CNS
EKVX NSCLC = system: EKVX NSCLC
786-0 renal = system: 786-0 renal
RPMI-8226 leukemia = system: RPMI-8226 leukemia
MOLT-4 leukemia = system: MOLT-4 leukemia
UACC-62 melanoma = system: UACC-62 melanoma
SW-620 colon = system: SW-620 colon
DU-145 prostate = system: DU-145 prostate
CAKI-1 renal = system: CAKI-1 renal
NCI-H226 lung = system: NCI-H226 lung
HL-60(TB) leukemia = system: HL-60(TB) leukemia
SK-MEL-2 melanoma = system: SK-MEL-2 melanoma
HOP-92 NSCLC = system: HOP-92 NSCLC
A549 NSCLC = system: A549 NSCLC
T-47D breast = system: T-47D breast
MDA-MB-231 breast = system: MDA-MB-231 breast
SNB-75 CNS = system: SNB-75 CNS
OVCAR-4 ovarian = system: OVCAR-4 ovarian
HCT-15 colon = system: HCT-15 colon
MALME-3M melanoma = system: MALME-3M melanoma
SK-MEL-28 melanoma = system: SK-MEL-28 melanoma
U251 glioblastoma = system: U251 glioblastoma
NCI-H460 NSCLC = system: NCI-H460 NSCLC
OVCAR-8 ovarian = system: OVCAR-8 ovarian
MDA-MB-468 breast = system: MDA-MB-468 breast
SNB-19 CNS = system: SNB-19 CNS
HT29 colon = system: HT29 colon
MDA-MB-435 melanoma = system: MDA-MB-435 melanoma
SF-295 CNS = system: SF-295 CNS
KM12 colon = system: KM12 colon
RXF 393 renal = system: RXF 393 renal
UACC-257 melanoma = system: UACC-257 melanoma
MCF7 breast = system: MCF7 breast
PC-3 prostate = system: PC-3 prostate
OVCAR-3 ovarian = system: OVCAR-3 ovarian
NCI-H522 lung = system: NCI-H522 lung
NCI-H322M lung = system: NCI-H322M lung
NCI/ADR-RES ovarian = system: NCI/ADR-RES ovarian
NCI-H23 lung = system: NCI-H23 lung
TK-10 renal = system: TK-10 renal
CCRF-CEM leukemia = system: CCRF-CEM leukemia
SK-MEL-5 melanoma = system: SK-MEL-5 melanoma
SF-268 CNS = system: SF-268 CNS

SMILES: Nc1ccn([C@@H]2S[C@H](CO)[C@@H](O)[C@@H]2F)c(=O)n1
- GI50 (SN12C renal): 23.8 nM
- TGI (SN12C renal): 69.5 nM
- GI50 (SR leukemia): 139 nM
- TGI (SR leukemia): 271 nM
- GI50 (HS 578T breast): 53.2 nM
- TGI (HS 578T breast): > 100000 nM
- GI50 (HCC-2998 colon): 15.2 nM
- TGI (HCC-2998 colon): 255 nM
- GI50 (IGROV1 ovarian): 310 nM
- TGI (IGROV1 ovarian): 57500 nM
- GI50 (HOP-62 NSCLC): 14.3 nM
- TGI (HOP-62 NSCLC): 54.8 nM
- GI50 (OVCAR-5 ovarian): 150 nM
- GI50 (M14 melanoma): 38.7 nM
- TGI (M14 melanoma): 163 nM
- GI50 (COLO 205 colon): 49.3 nM
- TGI (COLO 205 colon): 277 nM
- GI50 (ACHN renal): 23.8 nM
- TGI (ACHN renal): 56.6 nM
- GI50 (BT-549 breast): 22.6 nM
- TGI (BT-549 breast): 192 nM
- GI50 (SK-OV-3 ovarian): 24.2 nM
- TGI (SK-OV-3 ovarian): 182 nM
- GI50 (SF-539 CNS): 138 nM
- TGI (SF-539 CNS): 352 nM
- GI50 (EKVX NSCLC): 434 nM
- TGI (EKVX NSCLC): > 100000 nM
- GI50 (786-0 renal): 44.2 nM
- TGI (786-0 renal): 319 nM
- GI50 (RPMI-8226 leukemia): 194 nM
- TGI (RPMI-8226 leukemia): 449 nM
- GI50 (MOLT-4 leukemia): < 10 nM
- GI50 (UACC-62 melanoma): 184 nM
- TGI (UACC-62 melanoma): 443 nM
- GI50 (SW-620 colon): 250 nM
- TGI (SW-620 colon): > 100000 nM
- GI50 (DU-145 prostate): 24.3 nM
- TGI (DU-145 prostate): 71.2 nM
- GI50 (CAKI-1 renal): 37.3 nM
- TGI (CAKI-1 renal): 797 nM
- GI50 (NCI-H226 lung): 84.9 nM
- TGI (NCI-H226 lung): 320 nM
- GI50 (HL-60(TB) leukemia): 20.3 nM
- TGI (HL-60(TB) leukemia): 39 nM
- GI50 (SK-MEL-2 melanoma): 56.5 nM
- TGI (SK-MEL-2 melanoma): 201 nM
- GI50 (HOP-92 NSCLC): 25.2 nM
- TGI (HOP-92 NSCLC): 9020 nM
- GI50 (A549 NSCLC): 57.1 nM
- TGI (A549 NSCLC): > 100000 nM
- GI50 (T-47D breast): 310 nM
- TGI (T-47D breast): 35500 nM
- GI50 (MDA-MB-231 breast): 20.3 nM
- TGI (MDA-MB-231 breast): 600 nM
- GI50 (SNB-75 CNS): 54 nM
- TGI (SNB-75 CNS): 2680 nM
- GI50 (OVCAR-4 ovarian): > 100000 nM
- TGI (OVCAR-4 ovarian): > 100000 nM
- GI50 (HCT-15 colon): 55.7 nM
- TGI (HCT-15 colon): > 100000 nM
- GI50 (MALME-3M melanoma): < 10 nM
- TGI (MALME-3M melanoma): 316 nM
- GI50 (SK-MEL-28 melanoma): 74.3 nM
- TGI (SK-MEL-28 melanoma): 672 nM
- GI50 (U251 glioblastoma): 172 nM
- TGI (U251 glioblastoma): 572 nM
- GI50 (NCI-H460 NSCLC): 24 nM
- TGI (NCI-H460 NSCLC): 91 nM
- GI50 (OVCAR-8 ovarian): 13.4 nM
- TGI (OVCAR-8 ovarian): 35.2 nM
- GI50 (MDA-MB-468 breast): 61.7 nM
- TGI (MDA-MB-468 breast): 624 nM
- GI50 (SNB-19 CNS): 22.5 nM
- TGI (SNB-19 CNS): 387 nM
- GI50 (HT29 colon): 116 nM
- TGI (HT29 colon): 15600 nM
- GI50 (MDA-MB-435 melanoma): 383 nM
- TGI (MDA-MB-435 melanoma): > 100000 nM
- GI50 (SF-295 CNS): 143 nM
- TGI (SF-295 CNS): 460 nM
- GI50 (KM12 colon): 86.2 nM
- TGI (KM12 colon): > 100000 nM
- GI50 (RXF 393 renal): 77.4 nM
- TGI (RXF 393 renal): 767 nM
- GI50 (UACC-257 melanoma): 318 nM
- TGI (UACC-257 melanoma): 7780 nM
- GI50 (MCF7 breast): 90.9 nM
- TGI (MCF7 breast): > 100000 nM
- GI50 (PC-3 prostate): 55.9 nM
- TGI (PC-3 prostate): > 100000 nM
- GI50 (OVCAR-3 ovarian): 47.3 nM
- TGI (OVCAR-3 ovarian): 6890 nM
- GI50 (NCI-H522 lung): 11.6 nM
- TGI (NCI-H522 lung): 95 nM
- GI50 (NCI-H322M lung): 179 nM
- TGI (NCI-H322M lung): 50400 nM
- GI50 (NCI/ADR-RES ovarian): 16.5 nM
- TGI (NCI/ADR-RES ovarian): 48.1 nM
- GI50 (NCI-H23 lung): 23.7 nM
- TGI (NCI-H23 lung): 64.5 nM
- GI50 (TK-10 renal): > 100000 nM
- TGI (TK-10 renal): > 100000 nM
- GI50 (CCRF-CEM leukemia): < 10 nM
- TGI (CCRF-CEM leukemia): 12.2 nM
- GI50 (SK-MEL-5 melanoma): 53.6 nM
- TGI (SK-MEL-5 melanoma): 252 nM
- GI50 (SF-268 CNS): 140 nM
- TGI (SF-268 CNS): 349 nM
